Test results from patent publication US20210137961A1, “Compositions and Methods for Treating Dry Eye Diseases” (priority 2017, published 2021).
≈ marks a conversion by molar mass, not a printed value. Where two headings read alike, the source gives them in different places.

Tests used:
MSSA = experiment: MIC against MSSA (31 species); format: cell-based
[1] = system: phagocytized L. pneumophila; format: cell-based
[2] = speed of uptake and ultimate tissue concentration
Mycoplasma pneumoniae = experiment: MIC against Mycoplasma pneumoniae; format: cell-based
Listeria monocytogenes = experiment: MIC against Listeria monocytogenes; format: cell-based; conditions: N 10
Corynebacterium spp. = experiment: MIC against Corynebacterium spp.; format: cell-based; conditions: N 10
TNFα = experiment: LPS-induced TNFα production in PMA-differentiated U937 cells (ELISA); format: cell-based, human
Description: (§1) EXAMPLE. […] Cells. The human monocytic cell line U937 was obtained from the American Type Culture Collection (ATCC, Rockville, Md.). PBMCs from COPD patients were obtained from Brompton hospital and separated by AccuSPIN (Sigma-Aldrich). […] U937 cells were differentiated into adherent macrophage-like morphology by exposure to PMA (50 ng/ml) for 48 h in complete growth medium. Cell viability was assessed microscopically by trypan blue staining. Cell toxicity was determined by MTT assay as needed. This study was approved by the ethics committee of the Royal Brompton Hospitals, and all subjects gave written informed consent. Cytokine ELISA. TNFα and IL-8 concentrations in the supernatant of cell cultures were determined by sandwich ELISA according to the manufacturer's instructions (R&D Systems Europe, Abingdon, UK). Statistical analysis. The results were expressed as the mean±SEM. Comparisons of data in two groups were performed using the Student's t test or the Wilcoxon signed rank test. Multiple comparisons were made by one-way ANOVA with post hoc test (Dunnett's) as appropriate. The difference was considered significant at p<0.05. […] Anti-inflammatory effects of solithromycin in U937 cells.

Peptostreptococcus spp. = experiment: MIC against Peptostreptococcus spp.; format: cell-based; conditions: N 10
Moraxella catarrhalis = experiment: MIC against Moraxella catarrhalis; format: cell-based; conditions: N 21
Legionella pneumophila = format: cell-based
CXCL8 = experiment: LPS-induced CXCL8 (IL-8) production in PMA-differentiated U937 cells (ELISA); format: cell-based, human
Description: as §1

[3] = MIC in the presence of serum; format: cell-based; conditions: 10% serum
pathogenic bacteria = format: cell-based
[4] = Protein binding in plasma; format: in vitro ADME
H. influenzae = experiment: MIC against H. influenzae (30 species); format: cell-based
Chlamydia trachomatis = experiment: MIC against Chlamydia trachomatis; format: cell-based; conditions: N 10
Streptococcus pneumoniae = experiment: MIC against Streptococcus pneumoniae; format: cell-based
Mycoplasma hominis = experiment: MIC against Mycoplasma hominis; format: cell-based; conditions: N 13
S. epidermidis = experiment: MIC against S. epidermidis (30 species); format: cell-based
Neisseria gonorrhoeae = experiment: MIC against Neisseria gonorrhoeae; format: cell-based; conditions: N 34
[5] = solithromycin and telithromycin at 100 μM, clarithromycin at 333 μM
[6] = Streptococcus pneumoniae, N 150

Compound: CC[C@H]1OC(=O)[C@@](C)(F)C(=O)[C@H](C)[C@@H](O[C@@H]2O[C@H](C)C[C@H](N(C)C)[C@H]2O)[C@](C)(OC)C[C@@H](C)C(=O)[C@H](C)[C@H]2N(CCCCn3cc(-c4cccc(N)c4)nn3)C(=O)O[C@]12C [Solithromycin, solithromycin]
- I = intermediate susceptibility (MSSA): 0%
- MIC50 (MSSA): 15 ng/mL (≈ 17.8 nM)
- MIC90 (MSSA): 30 ng/mL (≈ 35.5 nM)
- MIC Range (MSSA): 4 to 64000 ng/mL
- NS = not susceptible (MSSA): 6%
- S = susceptible (MSSA): 94%
- potency relative to azithromycin [1]: 100 fold
- tissue distribution relative to Azi [2]: 10 fold
- MIC90 (Mycoplasma pneumoniae; Mycoplasma pneumoniae (38 strains)): 0.125 ng/mL (≈ 0.148 nM)
- MIC50 (Mycoplasma pneumoniae; Mycoplasma pneumoniae, N 38): 0.032 ng/mL (≈ 0.0379 nM)
- MIC90 (Mycoplasma pneumoniae; Mycoplasma pneumoniae, N 38): 0.125 ng/mL (≈ 0.148 nM)
- MIC Range (Mycoplasma pneumoniae; Mycoplasma pneumoniae, N 38): ≤6.3e-05 to 500 ng/mL
- MIC50 (Listeria monocytogenes): 30 ng/mL (≈ 35.5 nM)
- MIC90 (Listeria monocytogenes): 30 ng/mL (≈ 35.5 nM)
- MIC Range (Listeria monocytogenes): 30 ng/mL (≈ 35.5 nM)
- MIC50 (Corynebacterium spp.): 15 ng/mL (≈ 17.8 nM)
- MIC90 (Corynebacterium spp.): 500 ng/mL (≈ 592 nM)
- MIC Range (Corynebacterium spp.): ≤0.008-16 ^ μg/mL
- IC50 (TNFα; LPS, PMA-differentiated U937 cells, read-out: IC50 on TNFα release): 41.6 ± 1.9 µM
- inhibition of TNFα production (in words) (TNFα; [5]): significantly inhibited
- MIC50 (Peptostreptococcus spp.): 60 ng/mL (≈ 71 nM)
- MIC90 (Peptostreptococcus spp.): 250 ng/mL (≈ 296 nM)
- MIC Range (Peptostreptococcus spp.): ≤0.03-0.25^ μg/mL
- MIC50 (Moraxella catarrhalis): 120 ng/mL (≈ 142 nM)
- MIC90 (Moraxella catarrhalis): 120 ng/mL (≈ 142 nM)
- MIC Range (Moraxella catarrhalis): ≤8 to 500 ng/mL
- MIC90 (Legionella pneumophila; Legionella pneumophila (30 strains)): ≤15 ng/mL
- MIC50 (Legionella pneumophila; Legionella pneumophila, N 30): ≤15 ng/mL
- MIC90 (Legionella pneumophila; Legionella pneumophila, N 30): ≤15 ng/mL
- MIC Range (Legionella pneumophila; Legionella pneumophila, N 30): ≤15 ng/mL
- IC50 (CXCL8; LPS, PMA-differentiated U937 cells, read-out: IC50 on CXCL8 release): 78.2 ± 9.5 µM
- inhibition of CXCL8 (IL-8) production (in words) (CXCL8; [5]): significantly inhibited
- change in MIC in the presence of serum [3]: 2 fold
- activity against Azi resistant strains (pathogenic bacteria): active against all Azi resistant strains tested
- potency relative to Azi (pathogenic bacteria): 8-16 fold
- activity relative to conventional macrolides (pathogenic bacteria; greater activity): 10 fold
- intracellular activity relative to Azi (pathogenic bacteria; intracellular): 10 fold
- protein binding in plasma [4]: 86%
- I = intermediate susceptibility (H. influenzae): 0%
- MIC50 (H. influenzae): 2000 ng/mL (≈ 2370 nM)
- MIC90 (H. influenzae): 2000 ng/mL (≈ 2370 nM)
- MIC Range (H. influenzae): 1000 to 4000 ng/mL
- NS = not susceptible (H. influenzae): 0%
- S = susceptible (H. influenzae): 100%
- MIC50 (Chlamydia trachomatis): 250 ng/mL (≈ 296 nM)
- MIC90 (Chlamydia trachomatis): 250 ng/mL (≈ 296 nM)
- MIC Range (Chlamydia trachomatis): 125 to 500 ng/mL
- MIC90 (Streptococcus pneumoniae; Streptococcus Pneumoniae (150 strains)): 250 ng/mL (≈ 296 nM)
- MIC50 (Streptococcus pneumoniae; [6]): 15 ng/mL (≈ 17.8 nM)
- MIC90 (Streptococcus pneumoniae; [6]): 250 ng/mL (≈ 296 nM)
- MIC Range (Streptococcus pneumoniae; [6]): ≤8 to 500 ng/mL
- MIC50 (Mycoplasma hominis): 4 ng/mL (≈ 4.73 nM)
- MIC90 (Mycoplasma hominis): 8 ng/mL (≈ 9.47 nM)
- MIC Range (Mycoplasma hominis): 2 to 8 ng/mL
- I = intermediate susceptibility (S. epidermidis): 3%
- MIC50 (S. epidermidis): 15 ng/mL (≈ 17.8 nM)
- MIC90 (S. epidermidis): 32000 ng/mL (≈ 37900 nM)
- NS = not susceptible (S. epidermidis): 17%
- S = susceptible (S. epidermidis): 80%
- MIC50 (Neisseria gonorrhoeae): 60 ng/mL (≈ 71 nM)
- MIC90 (Neisseria gonorrhoeae): 120 ng/mL (≈ 142 nM)
- MIC Range (Neisseria gonorrhoeae): 30 to 250 ng/mL
